Assay results reported in the supplement of paper PMC10307832.

What was measured:
Test in all cases: relative viability (nuclei count vs DMSO), 5 days (fraction); higher = more cells survive
Veliparib + Tozasertib = compound: C[C@]1(c2nc3c(C(N)=O)cccc3[nH]2)CCCN1 [Veliparib] + Cc1cc(Nc2cc(N3CCN(C)CC3)nc(Sc3ccc(NC(=O)C4CC4)cc3)n2)n[nH]1 [Tozasertib] (partner 0.1 µM)
How it was run: (§1)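 The day after seeding in 1536-well plates, lung cancer cell lines were treated by pin tool with a single drug, or with a fixed anchor-drug dose together with five library-drug doses (not always all listed) in √10 steps. After 5 days, a combined fix-and-stain solution (final 0.05% Triton X-100, 1% formaldehyde, 1 ug/ml Hoechst) was added. Nuclei counted on 4× images gave relative viability as treated counts over vehicle counts, reported as the median of duplicate plates.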

Veliparib + Olaparib = compound: C[C@]1(c2nc3c(C(N)=O)cccc3[nH]2)CCCN1 [Veliparib] + O=C(c1cc(Cc2n[nH]c(=O)c3ccccc23)ccc1F)N1CCN(C(=O)C2CC2)CC1 [Olaparib] (partner 8 µM)
How it was run: as §1

Veliparib + Luminespib = compound: C[C@]1(c2nc3c(C(N)=O)cccc3[nH]2)CCCN1 [Veliparib] + CCNC(=O)c1noc(-c2cc(C(C)C)c(O)cc2O)c1-c1ccc(CN2CCOCC2)cc1 [Luminespib] (partner 0.01 µM)
How it was run: as §1

[1] = compound: COC1=CC=C(C=C1)CN2C=CC3=C2C=C(C=C3)C(=O)NO + O=C(CCCCCCC(=O)Nc1ccccc1)NO [Vorinostat] (partner 1 µM)
How it was run: as §1

Cell Line | relative viability (Veliparib + Tozasertib; first compound 0.02 µM) | relative viability (Veliparib + Tozasertib; first compound 0.06325 µM) | relative viability (Veliparib + Tozasertib; first compound 0.2 µM) | relative viability (Veliparib + Tozasertib; first compound 0.6325 µM) | relative viability (Veliparib + Tozasertib; first compound 2 µM) | relative viability (Veliparib + Olaparib; first compound 0.02 µM) | relative viability (Veliparib + Olaparib; first compound 0.06325 µM) | relative viability (Veliparib + Olaparib; first compound 0.2 µM) | relative viability (Veliparib + Olaparib; first compound 0.6325 µM) | relative viability (Veliparib + Olaparib; first compound 2 µM) | relative viability (Veliparib + Luminespib; first compound 0.02 µM) | relative viability (Veliparib + Luminespib; first compound 0.06325 µM) | relative viability (Veliparib + Luminespib; first compound 0.2 µM) | relative viability (Veliparib + Luminespib; first compound 0.6325 µM) | relative viability (Veliparib + Luminespib; first compound 2 µM) | relative viability ([1]; first compound 0.08 µM) | relative viability ([1]; first compound 0.253 µM) | relative viability ([1]; first compound 0.8 µM) | relative viability ([1]; first compound 2.53 µM) | relative viability ([1]; first compound 8 µM)
NCI-H2126 | 0.821 | 0.784 | 0.842 | 0.819 | 0.849 | 0.905 | 0.925 | 0.913 | 0.927 | 0.865 | 0.875 | 0.908 | 0.839 | 0.901 | 0.95 | 0.79 | 0.815 | 0.812 | 0.807 | 0.702
EPLC-272H | 0.273 | 0.227 | 0.224 | 0.2 | 0.249 | – | 0.764 | 1.05 | 0.733 | 0.715 | 0.264 | 0.526 | 0.485 | 0.0856 | 0.179 | – | 0.619 | 0.55 | 0.404 | 0.3
EKVX | 0.333 | 0.362 | 0.426 | 0.375 | 0.37 | – | 0.911 | 0.889 | 0.72 | 0.867 | 0.82 | 0.835 | 0.89 | 0.812 | 0.827 | 0.646 | 0.843 | 0.803 | 0.897 | 0.672
NCI-H1395 | 0.684 | 0.787 | 0.754 | 0.656 | 0.706 | 0.435 | 0.395 | 0.448 | 0.415 | 0.471 | 0.586 | 0.624 | 0.648 | 0.659 | 0.542 | – | 0.634 | 0.816 | 0.84 | 0.574
201T | 0.935 | 0.952 | 0.961 | 0.946 | 0.921 | 0.809 | 0.906 | 0.852 | 0.824 | 0.83 | 0.995 | 1.11 | 1.07 | 1.1 | 1.11 | 0.813 | 0.952 | 0.967 | 0.986 | 0.868
LC-2-ad | – | 0.456 | 0.486 | 0.417 | 0.445 | 0.744 | 0.68 | 0.662 | 0.756 | 0.681 | – | 0.947 | 1.04 | 0.982 | 1.03 | 0.58 | 0.742 | 0.748 | 0.701 | 0.592
COR-L 105 | 0.35 | 0.307 | 0.434 | 0.313 | 0.346 | 0.689 | 0.519 | 0.732 | 0.608 | 0.731 | 0.794 | 0.743 | 0.831 | 0.59 | 0.851 | 0.489 | 0.802 | 0.828 | 0.815 | 0.63
ChaGo-K-1 | 0.206 | 0.217 | 0.219 | 0.199 | 0.24 | 0.362 | 0.447 | 0.429 | 0.387 | 0.443 | 0.44 | 0.655 | 0.648 | 0.525 | 0.596 | – | 0.837 | 0.772 | 0.706 | 0.558
NCI-H441 | 0.633 | 0.608 | 0.529 | 0.541 | 0.683 | 0.691 | 0.637 | 0.573 | 0.598 | 0.595 | 0.316 | 0.288 | 0.377 | 0.339 | 0.375 | 0.74 | 0.888 | 0.902 | 0.844 | 0.637
NCI-H650 | 0.809 | 0.683 | 0.773 | 0.686 | 0.799 | 0.355 | 0.329 | 0.383 | 0.431 | 0.378 | 0.768 | 0.708 | 0.652 | 0.721 | 0.797 | 0.337 | 0.414 | 0.437 | 0.477 | 0.34
SK-MES-1 | 0.972 | 0.903 | 0.843 | 0.821 | 0.858 | 0.931 | 0.748 | 0.77 | 0.632 | 0.686 | 0.827 | 0.467 | 0.897 | 0.735 | 0.898 | 1.04 | 1.14 | 1.04 | 1.08 | 1.05
NCI-H2170 | 0.748 | 0.744 | 0.724 | 0.709 | 0.747 | 0.573 | 0.587 | 0.58 | 0.586 | 0.586 | 0.681 | 0.865 | 0.719 | 0.732 | 0.6 | 0.76 | 0.958 | 0.799 | 0.787 | 0.713
ABC-1 | – | 0.196 | 0.137 | 0.175 | 0.17 | – | – | 0.8 | 0.874 | 0.586 | – | 0.543 | 0.377 | 0.422 | 0.524 | – | 0.517 | 1.13 | 0.973 | 1.02
A-427 | – | 0.232 | 0.181 | 0.198 | 0.283 | 0.575 | 0.697 | 0.78 | 0.656 | 0.737 | – | 0.908 | 0.72 | 1.12 | 0.931 | 0.694 | – | 0.826 | 0.847 | 0.794
HARA | 0.119 | 0.117 | 0.117 | 0.0991 | 0.129 | 0.931 | – | 0.857 | 0.858 | 0.722 | 0.82 | 0.778 | 0.782 | 0.639 | 0.416 | – | 0.6 | 0.484 | 0.677 | 0.59
NCI-H1944 | 0.261 | 0.253 | 0.252 | 0.251 | 0.249 | 0.433 | 0.437 | 0.418 | 0.388 | 0.385 | 0.698 | 0.618 | 0.633 | 0.613 | 0.657 | – | 0.677 | 0.577 | 0.603 | 0.399
HCC-44 | 1.04 | – | 1.15 | 0.956 | 0.919 | 1.02 | 0.924 | 0.975 | 0.932 | 1 | 1.09 | – | 1.12 | 0.917 | 0.985 | 1.09 | 1.06 | 1.18 | 1.14 | 1.12
